Assay [1] deals with SiHa (human cervical carcinoma). As to the kind of experiment: MTT cell viability assay, SiHa. The format is cell-based. Conditions: for IC50: Homo sapiens, SiHa, pure compounds, MTT, 48 h incubation. As for the experimental part: (§1) Human prostatic adenocarcinoma (PC-3, ATCC CRL-7934), human lung adenocarcinoma (A549, ATCC CCL-185), and human cervical carcinoma (SiHa, ATCC HTB-35) cancer cell lines and normal mouse fibroblasts (L929, ATCC CRL-6364) were maintained in a humidified atmosphere with 5% CO2 at 37 °C, and grown as a monolayer culture in Dulbecco’s Modified Eagle Medium (DMEM) medium with 10% (v/v) fetal bovine serum (FBS), 1% (v/v) penicillin, and 1% (v/v) streptomycin. The anti-proliferative effects of G. monspessulana extracts and isolated compounds were measured according to a reported method. Cell suspension (100 µL, 5 × 10^3 cells/well) was inoculated in 96-well plates and cultured for 24 h. After that, the culture medium was replaced with a serum-free medium (100 µL) containing different concentrations of treatments (0.8–500 µg/mL for extracts and 0.16–100 µg/mL for pure compounds). Extracts and compounds were measured in triplicate. A PBS-containing free medium was used as a blank, 1% (w/v) bovine serum albumin-amended medium as negative control (100% survival), and curcumin (0.16–100 µg/mL) was used as the positive control. After 48 h of incubation, the cell viability was assessed by adding MTT (10 µL, 5 mg/mL) to each well, and the plates were subsequently incubated under 5% CO2 at 37 °C for 3 h. Formazan crystals were dissolved with 100 µL of DMSO. Absorbance was measured at 570 nm using a Varioskan LUX 96-well plate reader (Thermo Fisher Scientific, Waltham, MA, USA). The anti-proliferative effects were expressed as half-maximal inhibitory concentration (IC50) in µg/mL (extracts) and µM (compounds). The IC50 values were calculated from the dose-response curves through non-linear regression using GraphPad 5.0 (GraphPad Software, San Diego, CA, USA).
On the technique in general: Tetrazolium dyes change colour on reduction, which living cells bring about.

Assay [2] concerns L929 (normal mouse fibroblasts). As to the kind of experiment: MTT cell viability assay, L929 fibroblasts. The format is cell-based. Particulars: 48 h incubation; for IC50: Mus musculus, L929, pure compounds; for IC50 L929: pure compounds. As for the experimental part:
as §1

Assay [3] relates to PC-3 (human prostate adenocarcinoma). Kind of assay: MTT cell viability assay, PC-3. It is filed as cell-based. Particulars: for IC50: pure compounds, MTT, 48 h incubation. As for the experimental part:
as §1

For assay [4], the system named is A549 (human lung carcinoma). As to the kind of experiment: MTT cell viability assay, A549. The format is cell-based. Particulars: for IC50: Homo sapiens, A549, pure compounds, MTT, 48 h incubation. As for the experimental part:
as §1

In the next assay the test system is MOLT-4 cell line. More on the design: method as in PMID 23850732. Particulars: cited from earlier work.
For a further assay, the system named is K-562 cell line. The arrangement: method as in PMID 23850732. Conditions: cited from earlier work.
The test system of assay [5] is HL-60 cell line. The arrangement: method as in PMID 23850732. Particulars: cited from earlier work.
Assay [6] has as its system HL-60 cell line. The arrangement: method as in PMID 16887297. Conditions: cytotoxic activity; cited from earlier work.
The test system of assay [7] is SMMC-7721 (hepatocellular carcinoma) cells. The arrangement: method as in PMID 29330507. Particulars: cited from earlier work.
Assay [8] concerns MCF-7 (human breast cancer cell line). The arrangement: method as in PMID 30467293. Conditions: vs cytisine and (−)-maackiain; cited from earlier work.
The subject of assay [9] is MDA-MB-231 (human breast cancer cell line). More on the design: method as in PMID 30467293. Conditions: vs cytisine and (−)-maackiain; cited from earlier work.
The subject of the next assay is PC-3. More on the design: method as in doi:10.1590/S0103-50532012000300015. Conditions: cited from earlier work.
For assay [10], the system named is various cancer cell lines (KB, P-388, HL-60, K-562, MOLT-4, H2108, H1299, MRC-5, 786-O, Caki1, SN12C, SH-SY5Y, A375, SK-MEL-1, Eca109, KYSE30, HCT-116, SW480). More on the design: method as in PMID 31551770. Particulars: cytotoxicity; cited from earlier work.
The next assay deals with MCF-7 cell line. Particulars: cited from earlier work.
Another assay relates to A549 cell line. Particulars: read-out: IC50 A549; cytotoxic through apoptosis induction; cited from earlier work.
For the next assay, the system named is FaDu cell line. Particulars: cited from earlier work.
Assay [11] concerns HepG2 (human hepatocellular carcinoma) cell line. Particulars: cited from earlier work.
For another assay, the system named is MDA-MB cell line. Conditions: cited from earlier work.

“And” between values parts separate entries of the source, which are not always exact repeats. Identical values can stand only once. Like-named read-outs stand apart in the source and are kept apart here.

Broadly, the IC50 is the point on the concentration scale where inhibition reaches its midpoint. Take `O=C1[C@@H]2C[C@H](CN3CCCC[C@@H]23)[C@H]2CCCCN12` [Compound 3, (+)-aphylline]: the IC50 in [1] is > 403 µM; in assay [2], 22.3 µM; in assay [3] (Homo sapiens, 48 h), 21.3 µM; in assay [4] it was > 403 µM.

On to `CC(C)=CCc1c(O)cc2occ(-c3ccc(O)cc3)c(=O)c2c1O` [Compound 6, wighteone], for which the IC50 is > 296 µM in [1]; > 70 µM in the assay on MOLT-4 cell line; > 70 µM with K-562 cell line; > 296 µM in assay [2]; > 70 µM in the assay with HL-60 cell line [5]; 34.3 µM in [3] (Homo sapiens, 48 h). Further, the 50% inhibitory concentration (IC50) in [4] was > 296 µM. Further, the “IC50 L929” value in assay [2] is “inactive”.

Consider `O=c1cccc2n1C[C@H]1C[C@@H]2CN2CCCC[C@H]12` [Compound 4, (–)-anagyrine], for which the IC50 is > 409 µM in assay [1]; 36.5 µM in assay [2]; 33.5 µM in [3] (Homo sapiens); > 409 µM in [4]; 18 µM with HL-60 cell line [6].

Take `COc1cc(/C=C/C(=O)CC(=O)/C=C/c2ccc(O)c(OC)c2)ccc1O` [curcumin, reference compound]: the half-maximal inhibitory concentration (IC50) in assay [1] came to 6.5 µM; in assay [2], 105 µM; in [3] (Homo sapiens, 48 h), 9.5 µM; in [4], 8.4 µM.

On to `CN1CC2CC(C1)c1cccc(=O)n1C2` (single isomer, unassigned; (-)) [Compound 5, (–)-N-methylcytisine], for which the IC50 in assay [1] was > 490 µM; in [2] it was 91.3 µM; in assay [3] (Homo sapiens, 48 h), 28.4 µM; in assay [4] it was 36.3 µM. Moreover, the “proliferation of SMMC-7721 cells” value in [7] is recorded as “can inhibit the proliferation”.

As for tonkinensine B, the “fold better activity than respective precursors, MCF-7” value in [8] is given as 2–3 fold. Moreover, the “fold better activity than respective precursors, MDA-MB-231” value in assay [9] is on record as 2–3 fold.

For `CC1(C)C=Cc2c(cc3occ(-c4ccc(O)cc4)c(=O)c3c2O)O1` [Compound 2, alpinumisoflavone], the IC50 was 19.6 µM in [1]; < 30 µM with PC-3; < 70 µM in [10]; > 297 µM in assay [2]; < 18.6 µM in [3] (Homo sapiens, 48 h); 18.6 µM in [3]. Further, the IC50 in [4] is > 303 µM. Also, in assay [2], the “IC50 L929” value is “inactive”.

Consider `O=C1CCC=C2C3CC(CN12)C1CCCCN1C3` (single isomer, unassigned; (+)) [Compound 7, (+)-5,6-dehydrolupanine], for which the IC50 in assay [1] was > 406 µM; in [2], 85.9 µM; in assay [3] (Homo sapiens, 48 h), 31.5 µM; in assay [4] it was > 406 µM.

`CC1(C)C=Cc2c(cc3occ(-c4ccc(O)c(CN5C[C@@H]6C[C@H](C5)c5cccc(=O)n5C6)c4)c(=O)c3c2O)O1` [Compound 8, (–)-3′-(N-cytisine)methylalpinumisoflavone]: the IC50 was 17.5 µM in assay [1], 385 µM in [2], 10.1 µM in assay [3] (Homo sapiens) and 46.8 µM in assay [4]. The “selectivity index (SI = IC50 normal cells/IC50 cancer cells) SiHa” value in [1] (L929 vs SiHa) stood at 22.0. Besides, the “selectivity index (SI = IC50 normal cells/IC50 cancer cells) PC-3” value in assay [3] (L929 vs PC-3) was 38.1 and > 30. In addition, in assay [4] (L929 vs A549), the “selectivity index (SI = IC50 normal cells/IC50 cancer cells) A549” value was 8.2.

Turning to `O=c1cccc2n1C[C@@H]1CNC[C@H]2C1` [Compound 1, (–)-cytisine], in the assay with MCF-7 cell line, the “effect on MCF-7 cell line” value is on record as “not affected”. Also, the IC50 in the assay with A549 cell line is 26.8 µM; in assay [1], 357 µM; in assay [2], 103 µM; in assay [3] (Homo sapiens, 48 h) it was < 18.6 µM; in [3], 15.8 µM; in assay [4], 42.5 µM. The “effect on FaDu cell line” value in the assay with FaDu cell line is listed as “not affected”. In addition, the “effect on HepG2 cell line” value in assay [11] was “inducing mitochondrial-mediated apoptosis”. The “effect on MDA-MB cell line” value in the assay with MDA-MB cell line was “not affected”.

The record behind these values is article PMC9268615, “Identification of Anti-Proliferative Compounds from Genista monspessulana Seeds through Covariate-Based Integration of Chemical Fingerprints and Bioactivity Datasets” (Molecules, 2022).
